Experimental data as given in US12150995B2, “IRAK degraders and uses thereof” (Kymera Therapeutics, Inc., priority 2020, dated 2024).

Molecular target: T1, IRAK4 (Homo sapiens, UniProt Q9NWZ3)
T1 construct: endogenous in cells; host or cells: OCI-LY10
T1 sequence (Q9NWZ3 1-460): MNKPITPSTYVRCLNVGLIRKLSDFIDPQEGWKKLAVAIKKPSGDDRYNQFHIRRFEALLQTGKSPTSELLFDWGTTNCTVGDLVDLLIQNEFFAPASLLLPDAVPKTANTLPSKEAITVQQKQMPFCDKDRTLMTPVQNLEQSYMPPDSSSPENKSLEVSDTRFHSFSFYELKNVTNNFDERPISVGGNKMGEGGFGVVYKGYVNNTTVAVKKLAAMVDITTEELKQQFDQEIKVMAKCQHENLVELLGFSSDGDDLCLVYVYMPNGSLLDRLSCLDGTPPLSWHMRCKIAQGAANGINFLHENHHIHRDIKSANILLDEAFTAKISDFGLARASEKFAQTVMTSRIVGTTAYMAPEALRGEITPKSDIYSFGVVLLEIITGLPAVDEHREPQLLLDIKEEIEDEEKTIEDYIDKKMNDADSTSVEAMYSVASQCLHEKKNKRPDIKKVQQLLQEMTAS
Assay: IRAK4 MSD Degradation in OCI-LY10
Format: cell-based
Details: OCI-LY10 cells, Meso Scale Discovery, incubated 4 to 24 hours
Summary of the method: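 IRAK4 degradation was quantified by Meso Scale electrochemiluminescence (anti-IRAK4 capture and detection antibodies) in lysates of treated OCI-LY10 cells. Compounds were dosed at 8 concentrations (1:3 dilutions, top 1 to 10 μM) for 4 to 24 h; DC50 derived by three-parameter logistic fitting.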

Structure (SMILES) | DC50
COc1cc2nn([C@H]3CC[C@H](CN4CCN(c5cccc6c5n(C)c(=O)n6C5CCC(=O)NC5=O)CC4)CC3)cc2cc1NC(=O)c1ccnc(C(F)(F)F)n1 (some centres unmarked) [I-298] | < 0.01 µM
COc1cc2nn([C@H]3CC[C@H](CN4CCN(c5cccc6c(N7CCC(=O)NC7=O)cncc56)CC4)CC3)cc2cc1NC(=O)c1cncc(C(F)(F)F)n1 [I-299] | < 0.01 µM
Cc1cc2nn([C@H]3CC[C@H](CN4CCN(c5cccc6c5n(C)c(=O)n6C5CCC(=O)NC5=O)C[C@@H]4C)CC3)cc2cc1NC(=O)c1cccc(C(F)(F)F)n1 (some centres unmarked) [I-301] | < 0.01 µM
Cc1cc2nn([C@H]3CC[C@H](CN4CCN(c5cccc6c5n(C)c(=O)n6C5CCC(=O)NC5=O)CC4(C)C)CC3)cc2cc1NC(=O)c1cccc(C(F)(F)F)n1 (some centres unmarked) [I-305] | 0.01 to 0.05 µM
CSc1cc2nn([C@H]3CC[C@H](CN4CCN(c5cccc6c5n(C)c(=O)n6C5CCC(=O)NC5=O)CC4)CC3)cc2cc1NC(=O)c1cccc(C(F)(F)F)n1 (some centres unmarked) [I-307] | < 0.01 µM
COc1cc2nn([C@H]3CC[C@H](CN4CCN(c5ccc(F)c6c(N7CCC(=O)NC7=O)cncc56)CC4)CC3)cc2cc1NC(=O)c1cccc(C(F)(F)F)n1 [I-311] | < 0.01 µM
CN(C[C@H]1CC[C@H](n2cc3cc(NC(=O)c4cccc(C(F)(F)F)n4)ncc3n2)CC1)C1CCN(c2ccc3c(N4CCC(=O)NC4=O)cncc3c2)CC1 [I-317] | 0.1 to 0.2 µM
COc1cc2nn([C@H]3CC[C@H](CN(C)C4CCN(c5ccc6c(N7CCC(=O)NC7=O)cncc6c5)CC4)CC3)cc2cc1NC(=O)c1cccc(C(F)(F)F)n1 [I-320] | < 0.01 µM
Cc1ccc2c(c1C1CCN(C[C@H]3CC[C@H](n4cc5cc(NC(=O)c6cccc(C#N)n6)ccc5n4)CC3)CC1)n(C)c(=O)n2C1CCC(=O)NC1=O (some centres unmarked) [I-323] | < 0.01 µM
Cn1c(=O)n(C2CCC(=O)NC2=O)c2cccc(N3CCN(C[C@H]4CC[C@H](n5cc6cc(NC(=O)c7cccc(C(F)(F)F)n7)ccc6n5)CC4)C(C)(C)C3)c21 (some centres unmarked) [I-324] | 0.01 to 0.05 µM
Cn1c(=O)n(C2CCC(=O)NC2=O)c2cccc(C#CCN3CCN(C[C@H]4CC[C@H](n5cc6cc(NC(=O)c7cccc(C(F)(F)F)n7)c(C(C)(C)O)cc6n5)CC4)CC3)c21 (some centres unmarked) [I-326] | < 0.01 µM
COc1cc2nn([C@H]3CC[C@H](CN4CCN(c5cccc6c(N7CCC(=O)N(C)C7=O)cncc56)CC4)CC3)cc2cc1NC(=O)c1cccc(C(F)(F)F)n1 [I-330] | > 0.2 µM
COc1cc2nn([C@H]3CC[C@H](CN4CCN(c5c(C)ccc6c(N7CCC(=O)NC7=O)cncc56)CC4)CC3)cc2cc1NC(=O)c1cccc(C(F)(F)F)n1 [I-331] | < 0.01 µM
CN(CCCO[C@H]1C[C@H](Nc2cccc3c2C(=O)N(C2CCC(=O)NC2=O)C3=O)C1)C[C@H]1CC[C@H](n2cc3cc(NC(=O)c4cccc(C(F)(F)F)n4)ncc3n2)CC1 (some centres unmarked) [I-353] | > 0.2 µM
CN(CCCO[C@H]1C[C@H](Nc2cccc3c2C(=O)N(C2CCC(=O)NC2=O)C3=O)C1)C[C@H]1CC[C@H](n2cc3cc(NC(=O)c4cccc(C(F)(F)F)n4)ccc3n2)CC1 (some centres unmarked) [I-354] | > 0.2 µM
COc1ccc2c(c1C1=CCN(C[C@H]3CC[C@H](n4cc5cc(NC(=O)c6cccc(C(F)(F)F)n6)ccc5n4)CC3)CC1)n(C)c(=O)n2C1CCC(=O)NC1=O (some centres unmarked) [I-355] | < 0.01 µM
COc1cc2nn([C@H]3CC[C@H](CN4CC=C(c5cccc6c(N7CCC(=O)NC7=O)cncc56)CC4)CC3)cc2cc1NC(=O)c1cccc(C(F)(F)F)n1 [I-357] | < 0.01 µM
Cn1c(=O)n(C2CCC(=O)NC2=O)c2cccc(N3CCN(C[C@H]4CC[C@H](n5cc6cc(NC(=O)c7cccc(C(F)(F)F)n7)c(C#N)cc6n5)CC4)CC3)c21 (some centres unmarked) [I-363] | < 0.01 µM
COc1cc2nn([C@H]3CC[C@H](CN4CCCN(c5cccc6c5n(C)c(=O)n6C5CCC(=O)NC5=O)CC4)CC3)cc2cc1NC(=O)c1cncc(C#N)c1 (some centres unmarked) [I-367] | 0.01 to 0.05 µM

More lines, now with the values ahead:

DC50 | Structure (SMILES)
0.01 to 0.05 µM | COc1cc2nn([C@H]3CC[C@H](CN4CCN(c5cccc6c(N7CCC(=O)NC7=O)cncc56)CC4)CC3)cc2cc1NC(=O)c1ccnc(C(F)(F)F)n1 [I-300]
< 0.01 µM | Cc1cc2nn([C@H]3CC[C@H](CN4C[C@@H]5C[C@H]4CN5c4cccc5c4n(C)c(=O)n5C4CCC(=O)NC4=O)CC3)cc2cc1NC(=O)c1cccc(C(F)(F)F)n1 (some centres unmarked) [I-303]
0.01 to 0.05 µM | Cc1cc2nn([C@H]3CC[C@H](CN4CCN(c5cccc6c5n(C5CC5)c(=O)n6C5CCC(=O)NC5=O)CC4)CC3)cc2cc1NC(=O)c1cccc(C(F)(F)F)n1 (some centres unmarked) [I-304]
0.01 to 0.05 µM | COc1cc2nn([C@H]3CC[C@H](CN4CCN(c5cccc6c5n(C)c(=O)n6C5CCC(=O)NC5=O)CC4(C)C)CC3)cc2cc1NC(=O)c1cccc(C(F)(F)F)n1 (some centres unmarked) [I-306]
< 0.01 µM | Cn1c(=O)n(C2CCC(=O)NC2=O)c2cccc(N3CCN(C[C@H]4CC[C@H](n5cc6cc(NC(=O)c7cccc(C(F)(F)F)n7)c([S+](C)[O-])cc6n5)CC4)CC3)c21 (some centres unmarked) [I-308]
< 0.01 µM | CC(C)Nc1c(C(=O)N[C@H]2CC[C@H](CN3CCC(c4cccc5c4n(C)c(=O)n5C4CCC(=O)NC4=O)CC3)CC2)cnc2c1Oc1cc(C#N)ccc1O2 (some centres unmarked) [I-309]
> 0.2 µM | CC(C)Nc1c(C(=O)N[C@H]2CC[C@H](CN3CCC(c4cccc5c(N6CCC(=O)NC6=O)cncc45)CC3)CC2)cnc2c1Oc1ccc(C#N)cc1O2 [I-310]
> 0.2 µM | COc1cc2nn([C@H]3CC[C@H](CN4CCN(c5ccc(N6CCC(=O)NC6=O)cc5)CC4)CC3)cc2cc1NC(=O)c1cccc(C(F)(F)F)n1 [I-312]
> 0.2 µM | COc1cc2nn([C@H]3CC[C@H](CN4CCN(c5ccc(N6CCC(=O)NC6=O)cn5)CC4)CC3)cc2cc1NC(=O)c1cccc(C(F)(F)F)n1 [I-313]
> 0.2 µM | O=C1CCN(c2cncc3cc(C4CCN(C[C@H]5CC[C@H](n6cc7cc(NC(=O)c8cccc(C(F)(F)F)n8)ncc7n6)CC5)CC4)ccc23)C(=O)N1 [I-318]
0.01 to 0.05 µM | CN(C[C@H]1CC[C@H](n2cc3cc(NC(=O)c4cccc(C(F)(F)F)n4)ccc3n2)CC1)C1CCN(c2ccc3c(N4CCC(=O)NC4=O)cncc3c2)CC1 [I-319]
> 0.2 µM | O=C1CCN(c2cncc3cc(C4CCN(C[C@H]5CC[C@H](n6cc7cc(NC(=O)c8cccc(C(F)(F)F)n8)ccc7n6)CC5)CC4)ccc23)C(=O)N1 [I-321]
< 0.01 µM | COc1cc2nn([C@H]3CC[C@H](CN4CCC(c5ccc6c(N7CCC(=O)NC7=O)cncc6c5)CC4)CC3)cc2cc1NC(=O)c1cccc(C(F)(F)F)n1 [I-322]
> 0.2 µM | Cn1c(=O)n(C2CCC(=O)NC2=O)c2cccc(C3CCN(C[C@H]4CC[C@H](n5cc6cc(NC(=O)c7cncc(C#N)c7)c(OC(F)(F)F)cc6n5)CC4)CC3)c21 (some centres unmarked) [I-325]
< 0.01 µM | COc1cc2nn([C@H]3CC[C@@H](CN4CCN(CC#Cc5cccc6c5n(C)c(=O)n6C5CCC(=O)NC5=O)CC4)CC3)cc2cc1NC(=O)c1cccc(C(F)(F)F)n1 (some centres unmarked) [I-327]
0.01 to 0.05 µM | Cn1c(=O)n(C2CCC(=O)NC2=O)c2cccc(N3CCCN(C[C@H]4CC[C@H](n5cc6cc(NC(=O)c7cccc(C(F)(F)F)n7)ccc6n5)CC4)CC3)c21 (some centres unmarked) [I-328]
< 0.01 µM | CC(C)Nc1cc(-n2ccc3cc(C#N)cnc32)ncc1-c1cn([C@H]2CC[C@H](CN3CCC(c4cccc5c(N6CCC(=O)NC6=O)cncc45)CC3)CC2)nn1 [I-329]
0.01 to 0.05 µM | COc1cc2nn([C@H]3CC[C@H](CN4CCN(c5c(OC)ccc6c(N7CCC(=O)NC7=O)cncc56)CC4)CC3)cc2cc1NC(=O)c1cccc(C(F)(F)F)n1 [I-332]
< 0.01 µM | COc1cc2nn([C@H]3CC[C@H](CN4CCCN(c5ccc6c(N7CCC(=O)NC7=O)cncc6c5)CC4)CC3)cc2cc1NC(=O)c1cccc(C(F)(F)F)n1 [I-356]
0.01 to 0.05 µM | O=C1CCN(c2cncc3c(N4CCN(C[C@H]5CC[C@H](n6cc7cc(NC(=O)c8cccc(C(F)(F)F)n8)c(Cl)cc7n6)CC5)CC4)cccc23)C(=O)N1 [I-358]
< 0.01 µM | Cn1c(=O)n(C2CCC(=O)NC2=O)c2cccc(N3CCN(C[C@H]4CC[C@H](n5cc6cc(NC(=O)c7cccc(C(F)(F)F)n7)c(F)cc6n5)CC4)CC3)c21 (some centres unmarked) [I-359]
0.01 to 0.05 µM | Cn1c(=O)n(C2CCC(=O)NC2=O)c2cccc(N3CCN(C[C@H]4CC[C@H](n5cc6cc(NC(=O)c7cccc(C(F)(F)F)n7)c(Cl)cc6n5)CC4)CC3)c21 (some centres unmarked) [I-360]
< 0.01 µM | CC(C)Nc1cc(-n2ccc3cc(C#N)cnc32)ncc1C(=O)N[C@H]1CC[C@H](CN2CCN(c3cccc4c3n(C)c(=O)n4C3CCC(=O)NC3=O)CC2)CC1 (some centres unmarked) [I-361]
< 0.01 µM | CC(C)Nc1cc(-c2ccc3cc(C#N)cnn23)ncc1C(=O)N[C@H]1CC[C@H](CN2CCN(c3cccc4c3n(C)c(=O)n4C3CCC(=O)NC3=O)CC2)CC1 (some centres unmarked) [I-362]
< 0.01 µM | COc1cc2nn([C@H]3CC[C@H](CN4CCN(c5c(OC)ccc6c5n(C)c(=O)n6C5CCC(=O)NC5=O)CC4)CC3)cc2cc1NC(=O)c1cccc(C(F)(F)F)n1 (some centres unmarked) [I-364]
< 0.01 µM | COc1cc2nn([C@H]3CC[C@H](CN4CCN(c5cccc6c5n(C)c(=O)n6C5CCC(=O)NC5=O)CC4)CC3)cc2cc1NC(=O)c1cncc(C)c1 (some centres unmarked) [I-365]
< 0.01 µM | COc1cc2nn([C@H]3CC[C@H](CN4CC=C(c5ccc6c(c5)n(C)c(=O)n6C5CCC(=O)NC5=O)C4)CC3)cc2cc1NC(=O)c1cccc(C(F)(F)F)n1 (some centres unmarked) [I-366]
> 0.2 µM | CC(C)Nc1cc(-n2ccc3cc(C(F)(F)F)cnc32)ncc1C(=O)N[C@H]1CC[C@H](CN2CCC(c3cccc4c3n(C)c(=O)n4C3CCC(=O)NC3=O)CC2)CC1 (some centres unmarked) [I-368]
